For 73 molecules, EC50, IC50 and outcome results are on record in PubChem BioAssay AID179 (DTP/NCI, 2004).

This experiment relates to CEM cells HIV-1 protection, formazan growth assay. As to the kind of experiment: NCI AIDS Antiviral Assay. Particulars: for pIC50: measured here: growth of uninfected CEM cells. Summed up:
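Steps: treat uninfected and HIV-1-infected human CEM cells at five drug levels; quantify growth by soluble formazan; retest any compound reaching 50% protection; classify actives from the retest.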

pEC50, pIC50: −log10 of the molar value. Calls of active or inactive are those of the source.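 Rule for the calls: active = compounds giving half or more protection of infected cells from virus-caused growth loss, again on retest; inactive = the rest.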

Take `c1ccc2c3c([nH]c2c1)C1c2[nH]c4ccccc4c2CCN1CC3`: the pEC50 was less than 3.70 and the pIC50 was 4.96.
With `Cc1c(NC(=O)CCCl)c(=O)oc2c(C)c3occc(=O)c3cc12`, the pEC50 is less than 3.84 and the pIC50 was 5.83.
Turning to `CC(C)(C)c1ccc(-c2nc3ccccc3c(=O)o2)cc1`, the pEC50 is less than 3.70 and the pIC50 was 4.41.
`COc1cc(/C=C(\C#N)C(N)=C(C#N)C#N)cc(O)c1O`: the pEC50 was less than 4.32 and the pIC50 was less than 4.32.
As for `C#CCN1C(=O)c2ccccc2S1(=O)=O.[C-]#[O+].[C-]#[O+].[C-]#[O+].[C-]#[O+].[C-]#[O+].[C-]#[O+].[Co].[Co]`, the pEC50 is less than 3.70 and the pIC50 is 5.15.
In the case of `Cc1c(N=Nc2ccc(Cl)cc2)c(-c2ccccc2)n(C2OC(CO)C(O)C(O)C2O)c(=S)c1C#N` (configuration not stated), the pEC50 is less than 3.70 and the pIC50 is 4.43.
For the molecule `Cn1c(=O)c2c(nc(NCCCCl)n2CC(=O)O)n(C)c1=O`, the pEC50 was less than 3.70 and the pIC50 was less than 3.70.
As to `CC1=NN(c2ccc(S(=O)(=O)O)cc2)/C(=N/NC(N)=S)C1`, the pEC50 is less than 3.12 and the pIC50 is 3.37.
On to `CN(C)CC1CCC/C(=C\c2ccc(N(C)C)cc2)C1=O` (configuration not stated), for which the pEC50 was less than 3.70 and the pIC50 was 5.65.
The corresponding values for `O=C1[C@@H](c2ccc(Cl)cc2)[C@H]2CC=C[C@H]2N1O` are less than 3.45 and 4.21.
For the molecule `CC1(C)CC(=O)/C(=C/C2CCNC2=S)C(=O)N1` (configuration not stated), the pEC50 is less than 3.30 and the pIC50 was less than 3.30.
In the case of `Cc1nc(C)c(C(=O)NNC(=O)c2ccccc2)cc1C(=O)NNC(=O)c1ccccc1`, the pEC50 is less than 3.70 and the negative logarithm of the IC50 (pIC50) is less than 3.70.
With `Cc1cccc(C)c1NC(=O)CCC(=O)NC(N)=NC#N`, the pEC50 was less than 3.34 and the negative-log IC50 (pIC50) is less than 3.34.
`O=C(NCCN(CCNC(=O)c1cccc(=O)n1O)CCNC(=O)c1cccc(=O)n1O)c1cccc(=O)n1O`: the pEC50 was less than 3.70 and the pIC50 was less than 3.70.
For the molecule `Nc1ccccc1SC(CC(=O)c1ccccc1)c1ccc2c(c1)OCO2` (configuration not stated), the pEC50 was less than 3.70 and the pIC50 is 4.97.
On to `O=S(=O)(O)SCCCNCCCCCCCCNCCCSS(=O)(=O)O`, for which the pEC50 is less than 3.70 and the pIC50 is 5.00.
On to `Cc1ccc(-c2c3nc(c(-c4ccc(C)cc4)c4ccc([nH]4)c(-c4ccc(OCC5COC(C)(C)O5)cc4)c4nc(c(-c5ccc(C)cc5)c5ccc2[nH]5)C=C4)C=C3)cc1` (configuration not stated), for which the pEC50 was less than 4.00 and the pIC50 is less than 4.00.
Turning to `O=C(O)c1cc2ccccc2c(Br)c1O.O=[N+]([O-])C1CCC(O)C2[N-]CCCC21.[Cu+]`, the pEC50 was less than 3.70 and the pIC50 is 5.47.
Regarding `CN(C)c1ccc(C=C2C(=O)OC(C)(C)OC2=O)cc1`, the outcome was inactive.
In the case of `[Cl][Cu][Cl]`, the pEC50 is less than 3.70 and the pIC50 was 3.74.
Regarding `NC(C/[N+]([O-])=N/O)C(=O)O` (configuration not stated), the pEC50 is less than 4.96 and the pIC50 was 5.62.
Take `Cc1ccc(C2(O)c3cccc4cccc(c34)C2(O)c2ccc(C)cc2)cc1` (configuration not stated): the pEC50 was less than 3.70 and the pIC50 is 4.87.
`O=C(O)CS(=O)(=O)O`: the pEC50 was less than 3.70 and the pIC50 is less than 3.70.
Take `CC(=O)OCC1OC(n2c(C)c(C(C)=O)c(-c3ccc(Cl)cc3)c(C#N)c2=S)C(OC(C)=O)C(OC(C)=O)C1OC(C)=O` (configuration not stated): the pEC50 is less than 3.70 and the pIC50 is 3.83.
The corresponding values for `CN(C)c1ccc(C=C2C=CC=C2)cc1` are less than 4.72 and less than 4.72.
Take `O=S(=O)(N/N=C1\CC2CCC1C2)c1ccccc1` (configuration not stated): the pEC50 was less than 3.70 and the pIC50 is less than 3.70.
For `COc1cc2nc(/C=C/c3nc4cc(OC)c(OC)cc4[nH]3)[nH]c2cc1OC`, the pEC50 is less than 3.70 and the pIC50 was 4.24.
For `CC1CCC2C(C(=O)O[C@H]3C4C=CO[C@@H](OC5OC(CO)C(O)C(O)C5O)C4[C@@]4(CO)O[C@@H]34)=CO[C@@H](OC3OC(CO)C(O)C(O)C3O)C12` (some centres not stated), the pEC50 was less than 3.70 and the pIC50 was less than 3.70.
With `CC(C)(C)C1(C#N)C(=O)N(c2ccc(Cl)cc2)C12c1ccccc1-c1ccccc12` (configuration not stated), the pEC50 was less than 5.04 and the pIC50 was less than 5.04.
Turning to `CC(=O)OCC1OC(n2c3c(cc(C#N)c2=O)CCCCCC3)C(OC(C)=O)C(OC(C)=O)C1OC(C)=O` (configuration not stated), the pEC50 was less than 3.70 and the negative-log IC50 (pIC50) is 3.77.
For `c1ccc(C2=NCCc3cc4c(cc32)OCO4)cc1`, the pEC50 is less than 3.70 and the pIC50 is 3.85.
As for `O=c1[nH]c2ccccc2nc1/C=C(\O)c1ccccc1O`, the pEC50 is less than 4.87 and the negative logarithm of the IC50 (pIC50) was less than 4.87.
On to `O=C1OC2CSCC2O1` (configuration not stated), for which the pEC50 was less than 2.77 and the pIC50 was less than 2.77.
On to `Oc1ccccc1-c1cnnc(-c2ccccc2O)c1`, for which the pEC50 is less than 4.01 and the pIC50 is 4.74.
Take `CC1=CC(=O)/C(=C/n2c(=S)[nH]c3ccc([N+](=O)[O-])cc32)C(=O)O1`: the pEC50 was less than 3.00 and the pIC50 was 3.75.
In the same order, the values of `COC(=O)C1ON(C(=O)c2ccccc2)C(C)C2OC12` (configuration not stated) are less than 3.49 and less than 3.49.
As for `CCOC(=O)c1ccc(N=c2sc3ccccc3nc2Nc2ccc(C(=O)OCC)cc2)cc1`, the pEC50 was less than 3.70 and the negative logarithm of the IC50 (pIC50) was less than 3.70.
As to `CCOC(=O)CSc1c([N+](=O)[O-])ncn1C`, the pEC50 was less than 2.99 and the pIC50 is 3.77.
As for `C=C1C(O)C2(O)OCC34C(CC5C(C)=CC(=O)C(O)C5(C)C23)OC(=O)C(OC(=O)C/C=C(\C)CCCCC)C14` (configuration not stated), the pEC50 was less than 4.32 and the pIC50 is 7.82.
In the same order, the values of `COC(=O)C1C(C(=O)OC)C2(OC(c3ccc(Cl)cc3)=CC2=O)C12OC(c1ccc(Cl)cc1)=CC2=O` (configuration not stated) are less than 3.70 and 5.37.
Turning to `CC1(Cl)C2c3ccccc3C(c3ccccc32)C1(C)Cl` (configuration not stated), the pEC50 is less than 4.62 and the pIC50 is less than 4.62.
As to `O=C(/C=C/c1ccc(O)c(F)c1)CC(=O)/C=C/c1ccc(O)c(F)c1`, the pEC50 was less than 3.70 and the pIC50 was 4.90.
Consider `Cc1nn(C)pc1P(C)(=S)n1nc(N(C)C)np1` (configuration not stated), for which the pEC50 was less than 3.11 and the pIC50 was less than 3.11.
Regarding `CCN1CCC(O)(c2ccc(Oc3ccccc3)cc2)C(C(=O)c2ccc(Oc3ccccc3)cc2)C1` (configuration not stated), the pEC50 is less than 3.70 and the pIC50 is 4.88.
On to `O=C(/C(=C/c1ccc(O)cc1)c1ccccc1)c1ccccc1`, for which the pEC50 is less than 3.92 and the pIC50 is 4.44.
The corresponding values for `CC1(C)C(=O)C2(C#N)CCC1C2` (configuration not stated) are less than 3.70 and less than 3.70.
The corresponding values for `c1ccc(CSC(SCc2ccccc2)c2cccc3ccccc23)cc1` are 5.23 and less than 3.70.
On to `CCOC(=O)N/N=C(/N)c1cccc(Br)c1`, for which the pEC50 is less than 3.70 and the pIC50 is less than 3.70.
Take `COC(=O)Cc1cc(=O)n2c([nH]c3ccccc32)c1C#N`: the pEC50 was less than 4.59 and the pIC50 is less than 4.59.
Consider `CC(=O)ON1C(=O)c2cccc3cccc(c23)C1=O`, for which the pEC50 was less than 3.70 and the pIC50 was 4.73.
As for `O=C(CSC(=S)N1CCCCC1)Nc1nc2c(s1)CCCC2`, the pEC50 is less than 4.42 and the pIC50 is less than 4.42.
Take `Cc1nc2cc(C)[nH]c(=O)n2n1`: the pEC50 is less than 2.82 and the negative-log IC50 (pIC50) is less than 2.82.
Turning to `CCOC(=O)C(=CC[C@@H]1N[C@H](C(N)=O)Cc2c1[nH]c1ccccc21)C(=O)OCC`, the pEC50 is less than 4.47 and the pIC50 was less than 4.47.
Consider `Cn1c(=S)[nH]c(N)c(Cc2ccccc2)c1=O`, for which the pEC50 is less than 3.70 and the pIC50 is 4.19.
`O=C1C(C(O)(C(F)(F)F)C(F)(F)F)CCC1C(O)(C(F)(F)F)C(F)(F)F` (configuration not stated): the outcome was inactive.
With `CC1(c2ccccc2Cl)C(C#N)C(=O)NC(=O)C1C#N` (configuration not stated), the pEC50 was less than 4.04 and the pIC50 was 4.33.
Take `CC1(C(=O)O)CC(C(=O)O)=Nn2c3ccccc3c3cccc1c32` (configuration not stated): the pEC50 is less than 3.49 and the pIC50 was less than 3.49.
On to `Cc1ccc(S(=O)(=O)N2CCCN(S(=O)(=O)c3ccc(C)cc3)CCSCCCSCC2)cc1`, for which the pEC50 was less than 3.70 and the pIC50 is 4.50.
In the case of `COC[C@H](Cc1ccccc1)N=Cc1ccccc1`, the pEC50 was less than 3.70 and the pIC50 was less than 3.70.
For the molecule `O=C1C=CC[C@H](/C=C/C[C@@H](O)C[C@H](O)/C=C/c2ccccc2)O1`, the pEC50 was less than 3.70 and the pIC50 is 5.27.
Turning to `CC(C)=CCC[C@@H](C)C1=CC(=O)C(C)=C(O)C1=O`, the pEC50 is less than 5.70 and the pIC50 was 5.99.
As for `COc1ccc2nc3nc(-c4ccccc4)c(-c4ccccc4)nc3nc2c1`, the pEC50 was 7.09 and the pIC50 was 5.40.
In the same order, the values of `OCC(O)COc1c(Cl)ccc(Cl)c1Cl` (configuration not stated) are 4.06 and 3.56.
`N=C(N)n1[nH]c2c(c1=O)CCC2`: the pEC50 was less than 3.70 and the pIC50 was less than 3.70.
For the molecule `CON[N+]([O-])=NC(C)C`, the pEC50 was 3.71 and the pIC50 is less than 3.70.
Consider `CCOC(=O)C1Cc2[nH]c3ccccc3c2C(C)C1C` (configuration not stated), for which the pEC50 is less than 4.02 and the pIC50 is 4.31.
The corresponding values for `COc1ccc(NC(=S)N/N=C(/C)c2ccccn2)cc1` are less than 6.70 and 6.94.
In the same order, the values of `Cc1nc2ccccc2c(=O)n1-c1ccccc1Br` are less than 3.67 and less than 3.67.
Take `COc1ccc(N/N=C(\CCN(C)C)c2ccccc2)cc1`: the result was inactive.
As for `COC(=O)c1ccc(CCc2cc(O)ccc2O)cc1`, the pEC50 was less than 3.70 and the pIC50 was 5.31.
Regarding `COc1ccccc1NC(=O)/C(=C/c1ccccc1)C(C)=O`, the pEC50 is less than 4.61 and the pIC50 is 4.73.
Take `CCOC(=O)CC1=NC(C)(C)CC(C)O1` (configuration not stated): the pEC50 was less than 3.70 and the pIC50 was less than 3.70.
Consider `Cc1nc(=O)n2c(c1C(=O)Nc1ccc(Cl)cc1)NCCC2`, for which the result was inactive.

Broadly, the pEC50 is the negative decadic logarithm of the EC50, by convention in mol/L. As a reminder, the pIC50 is −log10 of the IC50, conventionally taken in molar units.
